This assay deals with Mcl-1 protein (UniProtKB primary accession number: Q07820) (Homo sapiens, UniProt Q07820). The experiment in a line: Inhibition of Mcl-1 by fluorescence polarisation, Method 1. The class given is binding. The note with it: Method 1, or Method 2 where the value is underlined (underlining not visible); for IC50: fluorescence polarisation test, read-out: IC50 (M) Mcl-1 FP; for percentage fluorescence polarisation inhibition (Mcl-1 FP), partial inhibitors: test compound at 10 uM. In short, it runs like this: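 Binding was measured as fluorescence polarisation of a fluorescein-labelled ligand (1 nM) displaced from Mcl-1 (5 nM), both final. Compounds ran as 11-point series with final DMSO at 5%.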
Chain of Mcl-1 protein (Q07820 whole entry): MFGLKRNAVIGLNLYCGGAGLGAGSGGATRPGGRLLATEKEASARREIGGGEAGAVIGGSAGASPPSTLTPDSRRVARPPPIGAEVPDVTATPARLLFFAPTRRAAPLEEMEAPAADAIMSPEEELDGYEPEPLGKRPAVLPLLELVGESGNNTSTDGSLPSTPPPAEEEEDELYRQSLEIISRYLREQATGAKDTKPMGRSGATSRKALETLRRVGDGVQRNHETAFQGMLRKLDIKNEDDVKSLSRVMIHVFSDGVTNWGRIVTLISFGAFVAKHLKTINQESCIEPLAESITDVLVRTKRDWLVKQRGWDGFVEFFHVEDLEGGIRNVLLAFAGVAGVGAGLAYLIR

This is an account of results in patent US9670227B2, “Thienopyrimidine derivatives, a process for their preparation and pharmaceutical compositions containing them” (LES LABORATOIRES SERVIER, priority 2013, dated 2017).

Structures are written as SMILES.

One may read the IC50 as the concentration that inhibits the measured activity by half.

As for `Cc1c(-c2c(-c3ccc(F)cc3)sc3ncnc(OC(Cc4ccccc4OCc4ccnc(-c5ccccc5F)n4)C(=O)OCC(=O)N(C)C)c23)ccc(OCCN(C)C)c1Cl` [Example 818, 2-(dimethylamino)-2-oxoethyl (2R)-2-{[(5Sa)-5-{3-chloro-4-[2-(dimethylamino)ethoxy]-2-methylphenyl}-6-(4-fluorophenyl)thieno[2,3-d]pyrimidin-4-yl]oxy}-3-(2-{[2-(2-fluorophenyl)pyrimidin-4-yl]methoxy}phenyl)propanoate], the IC50 amounted to 1.12e-06 M.
For the compound `COCCOc1ccccc1-c1nccc(COc2ccccc2CC(Oc2ncnc3sc(-c4ccc(F)cc4)c(-c4ccc(OCCN(C)C)c(Cl)c4C)c23)C(=O)OCC(=O)N(C)C)n1` [Example 819, 2-(dimethylamino)-2-oxoethyl (2R)-2-{[(5Sa)-5-{3-chloro-4-[2-(dimethylamino)ethoxy]-2-methylphenyl}-6-(4-fluorophenyl)thieno[2,3-d]pyrimidin-4-yl]oxy}-3-[2-({2-[2-(2-methoxyethoxy)phenyl]pyrimidin-4-yl}methoxy)phenyl]propanoate], the IC50 turned out to be 1.57e-07 M.
Regarding `Cc1oc(=O)oc1COC(=O)C(Cc1ccccc1OCc1ccnn1C(C)(C)C)Oc1ncnc2sc(-c3ccc(F)cc3)c(-c3ccc(OCCN(C)C)c(Cl)c3C)c12` [Example 820, (5-methyl-2-oxo-1,3-dioxol-4-yl)methyl (2R)-3-{2-[(1-tert-butyl-1H-pyrazol-5-yl)methoxy]phenyl}-2-{[(5Sa)-5-{3-chloro-4-[2-(dimethylamino)ethoxy]-2-methylphenyl}-6-(4-fluorophenyl)thieno[2,3-d]pyrimidin-4-yl]oxy}propanoate], the IC50 came out at 1.29e-08 M.
Consider `Cc1c(-c2c(-c3ccc(F)cc3)sc3ncnc(OC(Cc4ccccc4OCc4ccnn4C(C)(C)C)C(=O)OCOC(=O)C(C)(C)C)c23)ccc(OCCN(C)C)c1Cl` [Example 821, {[(2R)-3-{2-[(1-tert-butyl-1H-pyrazol-5-yl)methoxy]phenyl}-2-{[(5Sa)-5-{3-chloro-4-[2-(dimethylamino)ethoxy]-2-methylphenyl}-6-(4-fluorophenyl)thieno[2,3-d]pyrimidin-4-yl]oxy}propanoyl]oxy}methyl 2,2-dimethylpropanoate], for which the IC50 is 3.61e-07 M.
As to `CCN(C)CCOc1ccc(-c2c(-c3ccc(F)cc3)sc3ncnc(OC(Cc4ccccc4OCc4ccnc(-c5ccccc5F)n4)C(=O)OCC(=O)N(C)C)c23)c(C)c1Cl` [Example 822, 2-(dimethylamino)-2-oxoethyl (2R)-2-{[(5Sa)-5-(3-chloro-4-{2-[ethyl(methyl)amino]ethoxy}-2-methylphenyl)-6-(4-fluorophenyl)thieno[2,3-d]pyrimidin-4-yl]oxy}-3-(2-{[2-(2-fluorophenyl)pyrimidin-4-yl]methoxy}phenyl)propanoate], the IC50 turned out to be 2.4e-06 M.
For the compound `CCN(C)CCOc1ccc(-c2c(-c3ccc(F)cc3)sc3ncnc(OC(Cc4ccccc4OCc4ccnc(-c5ccccc5F)n4)C(=O)OCc4oc(=O)oc4C)c23)c(C)c1Cl` [Example 823, (5-methyl-2-oxo-1,3-dioxol-4-yl)methyl (2R)-2-{[(5Sa)-5-(3-chloro-4-{2-[ethyl(methyl)amino]ethoxy}-2-methylphenyl)-6-(4-fluorophenyl)thieno[2,3-d]pyrimidin-4-yl]oxy}-3-(2-{[2-(2-fluorophenyl)pyrimidin-4-yl]methoxy}phenyl)propanoate], the IC50 worked out at 1.98e-08 M.
As for `Cc1oc(=O)oc1COC(=O)C(Cc1ccccc1OCc1ccnn1C(C)(C)C)Oc1ncnc2sc(-c3cccc(F)c3F)c(-c3ccc(OCCN(C)C)c(Cl)c3C)c12` [Example 824, (5-methyl-2-oxo-1,3-dioxol-4-yl)methyl (2R)-3-{2-[(1-tert-butyl-1H-pyrazol-5-yl)methoxy]phenyl}-2-{[(5Sa)-5-{3-chloro-4-[2-(dimethylamino)ethoxy]-2-methylphenyl}-6-(2,3-difluorophenyl)thieno[2,3-d]pyrimidin-4-yl]oxy}propanoate], the 50% inhibitory concentration (IC50) came out at 3.82e-08 M.
`Cc1c(-c2c(-c3cccc(F)c3F)sc3ncnc(OC(Cc4ccccc4OCc4ccnn4C(C)(C)C)C(=O)OCC(=O)N(C)C)c23)ccc(OCCN(C)C)c1Cl` [Example 825, 2-(dimethylamino)-2-oxoethyl (2R)-3-{2-[(1-tert-butyl-1H-pyrazol-5-yl)methoxy]phenyl}-2-{[(5Sa)-5-{3-chloro-4-[2-(dimethylamino)ethoxy]-2-methylphenyl}-6-(2,3-difluorophenyl)thieno[2,3-d]pyrimidin-4-yl]oxy}propanoate]: the IC50 was 5.82e-07 M.
In the case of `CCOC(=O)[C@@H](Cc1ccccc1OCc1ccnc(-c2ccccc2OC)n1)Oc1ncnc2sc(-c3ccc(F)cc3)c(-c3ccc(OCCN4CCN(C)CC4)c(Cl)c3C)c12` [Example 830, ethyl (2R)-2-{[(5Ra)-5-{3-chloro-2-methyl-4-[2-(4-methylpiperazin-1-yl)ethoxy]phenyl}-6-(4-fluorophenyl)thieno[2,3-d]pyrimidin-4-yl]oxy}-3-(2-{[2-(2-methoxyphenyl)pyrimidin-4-yl]methoxy}phenyl)propanoate], the “percentage fluorescence polarisation inhibition (Mcl-1 FP), partial inhibitors” value was −11.9% @ 10 uM.
Regarding `COc1ccccc1-c1nccc(COc2ccccc2CC(Oc2ncnc3sc(-c4ccc(F)cc4)c(-c4ccc(OCCN5CC6(CN(C)C6)C5)c(Cl)c4C)c23)C(=O)O)n1` [Example 833, (2R)-2-{[(5Sa)-5-{3-chloro-2-methyl-4-[2-(6-methyl-2,6-diazaspiro[3.3]hept-2-yl)ethoxy]phenyl}-6-(4-fluorophenyl)thieno[2,3-d]pyrimidin-4-yl]oxy}-3-(2-{[2-(2-methoxyphenyl)pyrimidin-4-yl]methoxy}phenyl)propanoic acid], the IC50 came to 3.35e-09 M.
For `[2H]C([2H])([2H])Oc1ccccc1-c1nccc(COc2ccccc2CC(Oc2ncnc3sc(-c4ccc(F)cc4)c(-c4ccc(OCCN5CCN(C)CC5)c(Cl)c4C)c23)C(=O)OCC)n1` [Example 839, ethyl (2R)-2-{[(5Sa)-5-{3-chloro-2-methyl-4-[2-(4-methylpiperazin-1-yl)ethoxy]phenyl}-6-(4-fluorophenyl)thieno[2,3-d]pyrimidin-4-yl]oxy}-3-{2-[(2-{2-[(^2H3)methyloxy]phenyl}pyrimidin-4-yl)methoxy]phenyl}propanoate], the IC50 was 6.91e-07 M.
For the compound `COc1ccccc1CC(Oc1ncnc2sc(-c3ccc(F)cc3)c(-c3ccc(OC)c(Cl)c3C)c12)C(=O)O` [Example 840, (2R)-2-{[(5Sa)-5-(3-chloro-4-methoxy-2-methylphenyl)-6-(4-fluorophenyl)thieno[2,3-d]pyrimidin-4-yl]oxy}-3-(2-methoxyphenyl)propanoic acid], the IC50 was determined as 1.28e-07 M.
Consider `COc1ccccc1-c1nccc(COc2ccccc2CC(Oc2ncnc3sc(-c4ccc(F)cc4)c(-c4ccc(OC)c(Cl)c4C)c23)C(=O)O)n1` [Example 841, (2R)-2-{[(5Sa)-5-(3-chloro-4-methoxy-2-methylphenyl)-6-(4-fluorophenyl)thieno[2,3-d]pyrimidin-4-yl]oxy}-3-(2-{[2-(2-methoxyphenyl)pyrimidin-4-yl]methoxy}phenyl)propanoic acid], for which the IC50 came out at 4.8e-09 M.
As to `CCOC(=O)[C@@H](Cc1ccccc1OC)Oc1ncnc2sc(-c3ccc(F)cc3)c(-c3ccc(OC)c(Cl)c3C)c12` [Example 842, ethyl (2R)-2-{[(5Sa)-5-(3-chloro-4-methoxy-2-methylphenyl)-6-(4-fluorophenyl)thieno[2,3-d]pyrimidin-4-yl]oxy}-3-(2-methoxyphenyl)propanoate], the “percentage fluorescence polarisation inhibition (Mcl-1 FP), partial inhibitors” value is 7.65% @ 10 uM.
With `CCOC(=O)[C@@H](Cc1ccccc1OCc1ccnc(-c2ccccc2OC)n1)Oc1ncnc2sc(-c3ccc(F)cc3)c(-c3ccc(OC)c(Cl)c3C)c12` [Example 843, ethyl (2R)-2-{[(5Sa)-5-(3-chloro-4-methoxy-2-methylphenyl)-6-(4-fluorophenyl)thieno[2,3-d]pyrimidin-4-yl]oxy}-3-(2-{[2-(2-methoxyphenyl)pyrimidin-4-yl]methoxy}phenyl)propanoate], the “percentage fluorescence polarisation inhibition (Mcl-1 FP), partial inhibitors” value is recorded as 23.05% @ 10 uM.
Turning to `COc1ccccc1CC(Oc1ncnc2sc(-c3ccc(F)cc3)c(-c3ccc(OCCN4CCN(C)CC4)c(Cl)c3C)c12)C(=O)OCC(=O)N(C)C` [Example 844, 2-(dimethylamino)-2-oxoethyl (2R)-2-{[(5Sa)-5-{3-chloro-2-methyl-4-[2-(4-methylpiperazin-1-yl)ethoxy]phenyl}-6-(4-fluorophenyl)thieno[2,3-d]pyrimidin-4-yl]oxy}-3-(2-methoxyphenyl)propanoate], the IC50 was determined as 1.67e-06 M.
For the compound `COc1ccccc1C[C@@H](Oc1ncnc2sc(-c3ccc(F)cc3)c(-c3ccc(OC)c(Cl)c3C)c12)C(=O)OCC(=O)N(C)C` [Example 845, 2-(dimethylamino)-2-oxoethyl (2R)-2-{[(5Sa)-5-(3-chloro-4-methoxy-2-methylphenyl)-6-(4-fluorophenyl)thieno[2,3-d]pyrimidin-4-yl]oxy}-3-(2-methoxyphenyl)propanoate], the “percentage fluorescence polarisation inhibition (Mcl-1 FP), partial inhibitors” value stood at 7.85% @ 10 uM.
As to `COc1ccccc1C[C@@H](Oc1ncnc2sc(-c3ccc(F)cc3)c(-c3ccc(OC)c(Cl)c3C)c12)C(=O)OCOC(=O)C(C)(C)C` [Example 846, {[(2R)-2-{[(5Sa)-5-(3-chloro-4-methoxy-2-methylphenyl)-6-(4-fluorophenyl)thieno[2,3-d]pyrimidin-4-yl]oxy}-3-(2-methoxyphenyl)propanoyl]oxy}methyl 2,2-dimethylpropanoate], the “percentage fluorescence polarisation inhibition (Mcl-1 FP), partial inhibitors” value is given as 25.1% @ 10 uM.
Turning to `CCCCCCCCOC(=O)[C@@H](Cc1ccccc1OCc1ccnc(-c2ccccc2OC)n1)Oc1ncnc2sc(-c3ccc(F)cc3)c(-c3ccc(OC)c(Cl)c3C)c12` [Example 847, octyl (2R)-2-{[(5Sa)-5-(3-chloro-4-methoxy-2-methylphenyl)-6-(4-fluorophenyl)thieno[2,3-d]pyrimidin-4-yl]oxy}-3-(2-{[2-(2-methoxyphenyl)pyrimidin-4-yl]methoxy}phenyl)propanoate], the “percentage fluorescence polarisation inhibition (Mcl-1 FP), partial inhibitors” value is on record as 3.55% @ 10 uM.
